Test results from PubChem BioAssay (NCI).
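Dose response: 5 concentrations. Exposure: 48 h. Format: 96-well plates. Endpoint: linear interpolation; highest concentration if not reached. GI50 is the concentration that inhibits growth by half. At the TGI there is no net growth.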

Legend:
Assay in all cases: growth of human tumour cells (NCI), 48 h
786-0 renal = tested on: 786-0 renal
A498 renal = tested on: A498 renal
A549 NSCLC = tested on: A549 NSCLC
ACHN renal = tested on: ACHN renal
BT-549 breast = tested on: BT-549 breast
CAKI-1 renal = tested on: CAKI-1 renal
CCRF-CEM leukemia = tested on: CCRF-CEM leukemia
COLO 205 colon = tested on: COLO 205 colon
DU-145 prostate = tested on: DU-145 prostate
EKVX NSCLC = tested on: EKVX NSCLC
HCC-2998 colon = tested on: HCC-2998 colon
HCT-116 colon = tested on: HCT-116 colon
HCT-15 colon = tested on: HCT-15 colon
HL-60(TB) leukemia = tested on: HL-60(TB) leukemia
HOP-62 NSCLC = tested on: HOP-62 NSCLC
HOP-92 NSCLC = tested on: HOP-92 NSCLC
HS 578T breast = tested on: HS 578T breast
HT29 colon = tested on: HT29 colon
IGROV1 ovarian = tested on: IGROV1 ovarian
K-562 leukemia = tested on: K-562 leukemia
KM12 colon = tested on: KM12 colon
LOX IMVI melanoma = tested on: LOX IMVI melanoma
M14 melanoma = tested on: M14 melanoma
MALME-3M melanoma = tested on: MALME-3M melanoma
MCF7 breast = tested on: MCF7 breast
MDA-MB-231 breast = tested on: MDA-MB-231 breast
MDA-MB-435 = tested on: MDA-MB-435
MOLT-4 leukemia = tested on: MOLT-4 leukemia
NCI-H226 lung = tested on: NCI-H226 lung
NCI-H23 lung = tested on: NCI-H23 lung
NCI-H460 lung = tested on: NCI-H460 lung
NCI-H522 lung = tested on: NCI-H522 lung
NCI/ADR-RES ovarian = tested on: NCI/ADR-RES ovarian
OVCAR-3 ovarian = tested on: OVCAR-3 ovarian
OVCAR-4 ovarian = tested on: OVCAR-4 ovarian
OVCAR-5 ovarian = tested on: OVCAR-5 ovarian
OVCAR-8 ovarian = tested on: OVCAR-8 ovarian
PC-3 prostate = tested on: PC-3 prostate
RPMI-8226 leukemia = tested on: RPMI-8226 leukemia
RXF 393 renal = tested on: RXF 393 renal
SK-MEL-2 melanoma = tested on: SK-MEL-2 melanoma
SK-MEL-28 melanoma = tested on: SK-MEL-28 melanoma
SK-MEL-5 melanoma = tested on: SK-MEL-5 melanoma
SK-OV-3 ovarian = tested on: SK-OV-3 ovarian
SN12C renal = tested on: SN12C renal
SR leukemia = tested on: SR leukemia
SW-620 colon = tested on: SW-620 colon
T-47D breast = tested on: T-47D breast
TK-10 renal = tested on: TK-10 renal
UACC-257 melanoma = tested on: UACC-257 melanoma
UACC-62 melanoma = tested on: UACC-62 melanoma
UO-31 renal = tested on: UO-31 renal

CN(C)C1C(=O)C(C(N)=O)=C(O)C2(O)C(=O)C3=C(O)c4c(O)cccc4C(C)(O)C3CC12.[Cl][Sb]([Cl])[Cl] (centres undefined)
GI50 (786-0 renal): 4.14 µM | TGI (786-0 renal): 17.6 µM | GI50 (A498 renal): 2.96 µM | TGI (A498 renal): 11.4 µM | GI50 (A549 NSCLC): 3.47 µM | TGI (A549 NSCLC): 13.8 µM | GI50 (ACHN renal): 4.75 µM | TGI (ACHN renal): 18.7 µM | GI50 (BT-549 breast): 2.95 µM | TGI (BT-549 breast): 10.4 µM | GI50 (CAKI-1 renal): 1.83 µM | TGI (CAKI-1 renal): 4.22 µM | GI50 (CCRF-CEM leukemia): 2.39 µM | TGI (CCRF-CEM leukemia): 11.2 µM | GI50 (COLO 205 colon): 2.94 µM | TGI (COLO 205 colon): 9.17 µM | GI50 (DU-145 prostate): 4.33 µM | TGI (DU-145 prostate): 14.9 µM | GI50 (EKVX NSCLC): 2.96 µM | TGI (EKVX NSCLC): 8.01 µM | GI50 (HCC-2998 colon): 3.57 µM | TGI (HCC-2998 colon): 14.1 µM | GI50 (HCT-116 colon): 3.33 µM | TGI (HCT-116 colon): 12.2 µM | GI50 (HCT-15 colon): 3.59 µM | TGI (HCT-15 colon): 16.1 µM | GI50 (HL-60(TB) leukemia): 4.01 µM | TGI (HL-60(TB) leukemia): 9.9 µM | GI50 (HOP-62 NSCLC): 4.66 µM | TGI (HOP-62 NSCLC): 15.5 µM | GI50 (HOP-92 NSCLC): 2.56 µM | TGI (HOP-92 NSCLC): 7.61 µM | GI50 (HS 578T breast): 3 µM | TGI (HS 578T breast): > 100 µM | GI50 (HT29 colon): 3.79 µM | TGI (HT29 colon): 12.2 µM | GI50 (IGROV1 ovarian): 2.96 µM | TGI (IGROV1 ovarian): 8.5 µM | GI50 (K-562 leukemia): 3.26 µM | TGI (K-562 leukemia): 11.2 µM | GI50 (KM12 colon): 3.7 µM | TGI (KM12 colon): 13.2 µM | GI50 (LOX IMVI melanoma): 2.63 µM | TGI (LOX IMVI melanoma): 12.3 µM | GI50 (M14 melanoma): 3.82 µM | TGI (M14 melanoma): 16.6 µM | GI50 (MALME-3M melanoma): 1.94 µM | TGI (MALME-3M melanoma): 4.6 µM | GI50 (MCF7 breast): 3.55 µM | TGI (MCF7 breast): 13 µM | GI50 (MDA-MB-231 breast): 4.3 µM | TGI (MDA-MB-231 breast): 15.3 µM | GI50 (MDA-MB-435): 2.91 µM | TGI (MDA-MB-435): 10.4 µM | GI50 (MOLT-4 leukemia): 3.91 µM | TGI (MOLT-4 leukemia): 11 µM | GI50 (NCI-H226 lung): 3.33 µM | TGI (NCI-H226 lung): 22 µM | GI50 (NCI-H23 lung): 3.3 µM | TGI (NCI-H23 lung): 12.2 µM | GI50 (NCI-H460 lung): 3.27 µM | TGI (NCI-H460 lung): 12.3 µM | GI50 (NCI-H522 lung): 1.86 µM | TGI (NCI-H522 lung): 4.1 µM | GI50 (NCI/ADR-RES ovarian): 3.19 µM | TGI (NCI/ADR-RES ovarian): 16.6 µM | GI50 (OVCAR-3 ovarian): 3.62 µM | TGI (OVCAR-3 ovarian): 12.4 µM | GI50 (OVCAR-4 ovarian): 4.45 µM | TGI (OVCAR-4 ovarian): 19 µM | GI50 (OVCAR-5 ovarian): 7.29 µM | TGI (OVCAR-5 ovarian): 26.1 µM | GI50 (OVCAR-8 ovarian): 3.37 µM | TGI (OVCAR-8 ovarian): 13.1 µM | GI50 (PC-3 prostate): 3.05 µM | TGI (PC-3 prostate): 9.92 µM | GI50 (RPMI-8226 leukemia): 2.41 µM | TGI (RPMI-8226 leukemia): 5.85 µM | GI50 (RXF 393 renal): 3.03 µM | TGI (RXF 393 renal): 10.7 µM | GI50 (SK-MEL-2 melanoma): 2.99 µM | TGI (SK-MEL-2 melanoma): 8.04 µM | GI50 (SK-MEL-28 melanoma): 2.81 µM | TGI (SK-MEL-28 melanoma): 8.57 µM | GI50 (SK-MEL-5 melanoma): 1.78 µM | TGI (SK-MEL-5 melanoma): 4.36 µM | GI50 (SK-OV-3 ovarian): 3.79 µM | TGI (SK-OV-3 ovarian): 14 µM | GI50 (SN12C renal): 3.91 µM | TGI (SN12C renal): 14.9 µM | GI50 (SR leukemia): 2.88 µM | TGI (SR leukemia): 7.36 µM | GI50 (SW-620 colon): 4.01 µM | TGI (SW-620 colon): 16.5 µM | GI50 (T-47D breast): 3.81 µM | TGI (T-47D breast): 13.2 µM | GI50 (TK-10 renal): 3.85 µM | TGI (TK-10 renal): 14.3 µM | GI50 (UACC-257 melanoma): 3.12 µM | TGI (UACC-257 melanoma): 11.8 µM | GI50 (UACC-62 melanoma): 2.55 µM | TGI (UACC-62 melanoma): 7.45 µM | GI50 (UO-31 renal): 2.62 µM | TGI (UO-31 renal): 16.1 µM
